According to patent US20250230193A1, “CYCLIC COMPOUND HAVING SELECTIVE KRAS INHIBITORY EFFECT ON HRAS AND NRAS” (CHUGAI SEIYAKU KABUSHIKI KAISHA, priority 2022, published 2025):

What was measured:
[1] = target: GDP-bound NRAS wild-type protein (Homo sapiens, UniProt P01111); assay: Binding to NRAS by surface plasmon resonance (SPR), Single Cycle Kinetics; details: KD ratio, GDP-bound NRAS wild-type vs GDP-bound KRAS wild-type, SPR
[2] = target: GDP-bound HRAS wild-type protein (Homo sapiens, UniProt P01112); assay: Binding to HRAS by surface plasmon resonance (SPR), Single Cycle Kinetics; details: KD ratio, GDP-bound HRAS wild-type vs GDP-bound KRAS wild-type, SPR
Sequence of GDP-bound HRAS wild-type protein (P01112 whole entry): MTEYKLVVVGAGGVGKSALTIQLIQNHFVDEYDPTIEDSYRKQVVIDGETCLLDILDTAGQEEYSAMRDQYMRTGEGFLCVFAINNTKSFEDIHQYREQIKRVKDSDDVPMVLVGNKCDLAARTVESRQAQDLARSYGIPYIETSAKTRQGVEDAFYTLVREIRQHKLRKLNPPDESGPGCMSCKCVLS

Sequence of GDP-bound NRAS wild-type protein (P01111 whole entry): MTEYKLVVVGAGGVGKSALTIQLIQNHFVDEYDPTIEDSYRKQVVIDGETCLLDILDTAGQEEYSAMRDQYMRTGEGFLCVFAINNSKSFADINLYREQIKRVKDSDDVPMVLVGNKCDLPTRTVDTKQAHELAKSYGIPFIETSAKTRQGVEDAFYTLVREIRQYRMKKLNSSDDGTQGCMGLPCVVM

In the case of CC[C@H](C)[C@@H]1NC(=O)[C@H](CC2CCC2)N(C)C(=O)C[C@@H](C(=O)N(C)C)N(C)C(=O)[C@H](C2CCCC2)N(C)C(=O)C2(CCC2)N(C)C(=O)[C@@H]2C[C@@H](C)CN2C(=O)[C@H](CCc2cc(F)c(C(F)(F)F)c(F)c2)NC(=O)CN(C)C(=O)[C@H](Cc2ccc(C)cc2)N2CC/C=C\C[C@@H](C2=O)N(C)C(=O)CN(C)C1=O [PP1803], the “NRAS/KRAS (ratio of KD value for NRAS to KD value for KRAS)” value [1] is reported as “A (a compound having 10 or more and less than 20 is denoted as A)” and the “HRAS/KRAS (ratio of KD value for HRAS to KD value for KRAS)” value [2] is reported as “B (a compound having 3 or more and less than 10 is denoted as B)”.
In the case of CCO[C@@H]1C[C@H]2C(=O)N(C)C3(CCCC3)C(=O)N(C)[C@@H](C3CCCC3)C(=O)N(C)[C@H](C(=O)N(C)C)CC(=O)N(C)[C@@H](CC)C(=O)N[C@@H]([C@@H](C)CC)C(=O)N(C)CC(=O)N(C)[C@H]3C/C=C\CCN(C3=O)[C@@H](Cc3ccc(C(F)(F)F)cc3)C(=O)N(C)CC(=O)N[C@@H](CCc3cc(F)c(C(F)(F)F)c(F)c3)C(=O)N2C1 [PP1804], the “NRAS/KRAS (ratio of KD value for NRAS to KD value for KRAS)” value [1] is reported as “A (a compound having 10 or more and less than 20 is denoted as A)” and the “HRAS/KRAS (ratio of KD value for HRAS to KD value for KRAS)” value [2] is reported as “A (a compound having 10 or more and less than 20 is denoted as A)”.
With CC[C@H](C)[C@@H]1NC(=O)[C@H](CC)N(C)C(=O)C[C@@H](C(=O)N(C)C)N(C)C(=O)[C@H](C2CCCC2)N(C)C(=O)C2(CCCC2)N(C)C(=O)[C@@H]2CCCN2C(=O)[C@H](CCc2cc(F)c(C(F)(F)F)c(F)c2)NC(=O)CN(C)C(=O)[C@H](Cc2ccc(C(F)(F)F)cc2)N2CC/C=C\C[C@@H](C2=O)N(C)C(=O)CN(C)C1=O [PP1805] the “NRAS/KRAS (ratio of KD value for NRAS to KD value for KRAS)” value [1] was “A (a compound having 10 or more and less than 20 is denoted as A)” and the “HRAS/KRAS (ratio of KD value for HRAS to KD value for KRAS)” value [2] was “A (a compound having 10 or more and less than 20 is denoted as A)”.
In the case of CCO[C@@H]1C[C@H]2C(=O)N(C)C3(CCCC3)C(=O)N(C)[C@@H](C3CCCC3)C(=O)N(C)[C@H](C(=O)N(C)C)CC(=O)N(C)[C@@H](CC)C(=O)N[C@@H]([C@@H](C)CC)C(=O)N(C)CC(=O)N(C)[C@H]3C/C=C\CCN(C3=O)[C@@H](Cc3ccc(C)cc3)C(=O)N(C)CC(=O)N[C@@H](CCc3cc(F)c(C(F)(F)F)c(F)c3)C(=O)N2C1 [PP1806], the “NRAS/KRAS (ratio of KD value for NRAS to KD value for KRAS)” value [1] is reported as “A (a compound having 10 or more and less than 20 is denoted as A)” and the “HRAS/KRAS (ratio of KD value for HRAS to KD value for KRAS)” value [2] is reported as “B (a compound having 3 or more and less than 10 is denoted as B)”.
With CC[C@H](C)[C@@H]1NC(=O)[C@H](CC)N(C)C(=O)C[C@@H](C(=O)N(C)C)N(C)C(=O)[C@H](C2CCCC2)N(C)C(=O)C2(CCCC2)N(C)C(=O)[C@@H]2CCCN2C(=O)[C@H](CCc2cc(F)c(C(F)(F)F)c(F)c2)NC(=O)CN(C)C(=O)[C@H](Cc2ccc(C)cc2)N2CC/C=C\C[C@@H](C2=O)N(C)C(=O)CN(C)C1=O [PP1807] the “NRAS/KRAS (ratio of KD value for NRAS to KD value for KRAS)” value [1] was “A (a compound having 10 or more and less than 20 is denoted as A)” and the “HRAS/KRAS (ratio of KD value for HRAS to KD value for KRAS)” value [2] was “B (a compound having 3 or more and less than 10 is denoted as B)”.
With CCO[C@@H]1C[C@H]2C(=O)N(C)C3(CCCC3)C(=O)N(C)[C@@H](C3CCCC3)C(=O)N(C)[C@H](C(=O)N(C)C)CC(=O)N(C)[C@@H](C3CC3)C(=O)N[C@@H]([C@@H](C)CC)C(=O)N(C)CC(=O)N(C)[C@H]3C/C=C\CCN(C3=O)[C@@H](Cc3ccc(C)cc3)C(=O)N(C)CC(=O)N[C@@H](CCc3cc(F)c(C(F)(F)F)c(F)c3)C(=O)N2C1 [PP1808] the “NRAS/KRAS (ratio of KD value for NRAS to KD value for KRAS)” value [1] was “A (a compound having 10 or more and less than 20 is denoted as A)” and the “HRAS/KRAS (ratio of KD value for HRAS to KD value for KRAS)” value [2] was “B (a compound having 3 or more and less than 10 is denoted as B)”.
CCO[C@@H]1C[C@H]2C(=O)N(C)C3(CCCC3)C(=O)N(C)[C@@H](C3CCCC3)C(=O)N(C)[C@H](C(=O)N(C)C)CC(=O)N(C)[C@@H](CC)C(=O)N[C@@H]([C@@H](C)CC)C(=O)N3CCC[C@H]3C(=O)N(C)[C@H]3C/C=C\CCN(C3=O)[C@@H](Cc3ccc(C)cc3)C(=O)N(C)CC(=O)N[C@@H](CCc3cc(F)c(C(F)(F)F)c(F)c3)C(=O)N2C1 [PP1810] was tested, and the “NRAS/KRAS (ratio of KD value for NRAS to KD value for KRAS)” value [1] was “A (a compound having 10 or more and less than 20 is denoted as A)” and the “HRAS/KRAS (ratio of KD value for HRAS to KD value for KRAS)” value [2] was “B (a compound having 3 or more and less than 10 is denoted as B)”.
